Experimental findings from publication PMC3101270 (Biochemistry, 2011) are described below.

For orientation: Kd means the constant that tells how readily two partners part at equilibrium. The low end stands for higher affinity, the high end for lower affinity. As a reminder, the Ki is the equilibrium dissociation constant of an inhibitor or competing ligand from its target.

Test [1] has as its target T1, PfOPRT (Plasmodium falciparum, UniProt Q8N0R1).
T1 sequence (Q8N0R1 1-281): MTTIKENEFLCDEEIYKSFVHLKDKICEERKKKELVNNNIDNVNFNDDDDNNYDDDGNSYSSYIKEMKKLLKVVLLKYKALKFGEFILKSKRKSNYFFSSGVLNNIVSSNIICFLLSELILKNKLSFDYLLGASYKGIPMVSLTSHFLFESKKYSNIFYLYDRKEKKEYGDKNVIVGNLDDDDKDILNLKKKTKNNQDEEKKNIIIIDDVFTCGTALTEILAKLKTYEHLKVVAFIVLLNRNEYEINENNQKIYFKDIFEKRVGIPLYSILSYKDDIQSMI
The experiment in a line: ultrafiltration with 3H/[…]-labelled ligand. Format: binding.

Test [2] addresses T2, HsOPRT (Homo sapiens, UniProt P11172).
T2 sequence (P11172 2-214 limits assumed): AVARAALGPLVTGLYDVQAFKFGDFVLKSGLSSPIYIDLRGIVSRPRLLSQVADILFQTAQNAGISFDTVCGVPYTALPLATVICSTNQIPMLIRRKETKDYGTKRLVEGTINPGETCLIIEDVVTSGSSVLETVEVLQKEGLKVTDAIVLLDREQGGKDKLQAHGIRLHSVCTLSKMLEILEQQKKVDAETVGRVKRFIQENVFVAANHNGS
The experiment in a line: ultrafiltration with 3H/[…]-labelled ligand. Format: binding.

Test [3] concerns the target T1, PfOPRT. The experiment in a line: enzyme inhibition. Format: biochemical.
Test [4] addresses T2, HsOPRT. The experiment in a line: enzyme inhibition. Format: biochemical.

`O=C(O)c1cc(=O)[nH]c(=O)n1[C@@H]1O[C@H](COP(=O)(O)O)[C@@H](O)[C@H]1O` [OMP]: the Kd at PfOPRT [1] was 3.1 ± 1.6 µM; on HsOPRT [2] it was 2.5 ± 1.2 µM.

As for `O=S(=O)(O)O` [sulfate], the Ki was determined as 3100 ± 300 µM at PfOPRT [3] and 17600 ± 2800 µM at HsOPRT [4].
